Assay results reported in patent publication US11773078B2, “Furin inhibitors” (Glaxosmithkline Intellectual Property Development Limited, priority 2018, dated 2023).
Where a name gives a salt, the structure may show the parent alone.

Key:
[1] = target: T1, Furin (108-574-Tev-Flag-His) enzyme (Homo sapiens, UniProt P09958); assay: Furin enzyme assay; format: biochemical
T1 construct: Furin (108-574-Tev-Flag-His) enzyme was expressed and purified from CHO cells; TEV cleavage site (C); FLAG (C); His (C); made in house; host or cells: CHO cells
In short: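 Compounds ran as 11-point threefold dilutions (0.00017–10 μM final) against 40 pM furin, purified from CHO cells, for 2 h at room temperature. Buffer: 100 mM HEPES pH7.5 with 1 mM CaCl2 and 0.005% Triton X-100. Envision readout. Four-parameter curve gives pXC50.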

[2] = target: T2, furin (endogenous protease) in U20S cells (Homo sapiens, UniProt P09958); assay: Furin cell-based assay (image-based, Golgi-targeted GFP with BMP10 furin/PCSK cleavage site); conditions: 24-hour incubation, read-out: furin golgi cell pXC50 (converted);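 further: Read-out is mean GFP fluorescence of Golgi puncta per cell by high-content imaging, retained when furin inhibited, over an eleven-point 0.00017–10 µM series, four-parameter fit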
T2 construct: the endogenous protease cleaves GFP; endogenous in cells; host or cells: U2OS cells transduced with a BacMam reporter
T2 sequence (P09958 108-794): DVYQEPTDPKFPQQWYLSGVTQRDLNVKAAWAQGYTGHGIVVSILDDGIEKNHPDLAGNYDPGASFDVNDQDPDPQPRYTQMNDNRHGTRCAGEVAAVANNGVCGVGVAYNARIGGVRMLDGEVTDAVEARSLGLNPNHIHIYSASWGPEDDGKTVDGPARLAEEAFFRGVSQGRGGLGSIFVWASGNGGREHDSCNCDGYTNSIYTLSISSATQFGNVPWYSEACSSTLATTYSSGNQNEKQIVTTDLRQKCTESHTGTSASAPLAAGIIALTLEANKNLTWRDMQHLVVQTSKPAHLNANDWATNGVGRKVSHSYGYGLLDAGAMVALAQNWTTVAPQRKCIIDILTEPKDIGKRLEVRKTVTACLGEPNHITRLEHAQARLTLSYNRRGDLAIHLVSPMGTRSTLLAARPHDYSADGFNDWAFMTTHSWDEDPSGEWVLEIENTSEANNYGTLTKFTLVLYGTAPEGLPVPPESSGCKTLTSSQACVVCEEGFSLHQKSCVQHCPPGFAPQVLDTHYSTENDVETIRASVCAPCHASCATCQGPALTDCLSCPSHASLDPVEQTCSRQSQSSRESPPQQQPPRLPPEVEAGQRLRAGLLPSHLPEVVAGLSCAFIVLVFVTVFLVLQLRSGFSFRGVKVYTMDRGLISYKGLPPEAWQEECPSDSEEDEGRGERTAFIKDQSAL

T1 sequence (P09958 108-574): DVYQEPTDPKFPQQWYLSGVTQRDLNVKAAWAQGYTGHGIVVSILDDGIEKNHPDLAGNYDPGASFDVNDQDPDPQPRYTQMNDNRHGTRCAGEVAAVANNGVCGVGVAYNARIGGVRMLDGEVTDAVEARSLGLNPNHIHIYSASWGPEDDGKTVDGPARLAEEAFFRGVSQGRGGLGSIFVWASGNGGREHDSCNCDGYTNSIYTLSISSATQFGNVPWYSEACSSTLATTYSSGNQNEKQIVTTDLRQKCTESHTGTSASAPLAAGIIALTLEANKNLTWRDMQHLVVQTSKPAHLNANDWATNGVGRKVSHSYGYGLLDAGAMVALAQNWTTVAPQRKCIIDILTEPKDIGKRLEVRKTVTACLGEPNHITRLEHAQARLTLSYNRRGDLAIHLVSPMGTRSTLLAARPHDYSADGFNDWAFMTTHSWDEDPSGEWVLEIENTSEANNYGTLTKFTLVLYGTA

IC50 ([1]; read-out: furin enzyme pIC50 (converted)) [nM]	EC50 [2] [nM]	furin enzyme pIC50 [1]	Structure (SMILES)
2	6.31		CN1C2CCC1CN(c1ncc(Oc3nc(-c4cc(Cl)cc(Cl)c4)cc(CN4CCC(CC(=O)O)CC4)c3F)cn1)C2 [Example 378, 2-(1-((6-(3,5-dichlorophenyl)-3-fluoro-2-((2-(8-methyl-3,8-diazabicyclo[3.2.1]octan-3-yl)pyrimidin-5-yl)oxy)pyridin-4-yl)methyl)piperidin-4-yl)acetic acid]
	20	8.7	CN1CCN(c2ncc(Oc3nc(-c4cc(Cl)cc(Cl)c4)cc(CN4CCC(CC(=O)O)CC4)c3F)cn2)CC1 [Example 379, 2-(1-((6-(3,5-dichlorophenyl)-3-fluoro-2-((2-(4-methylpiperazin-1-yl)pyrimidin-5-yl)oxy)pyridin-4-yl)methyl)piperidin-4-yl)acetic acid]
	63.1	9.6	Cc1nc(N2CCN(C)CC2)ncc1Oc1nc(-c2cc(Cl)cc(Cl)c2)cc(CN2CCC(CC(=O)O)CC2)c1F [Example 380, 2-(1-((6-(3,5-dichlorophenyl)-3-fluoro-2-((4-methyl-2-(4-methylpiperazin-1-yl)pyrimidin-5-yl)oxy)pyridin-4-yl)methyl)piperidin-4-yl)acetic acid]
	10	8.9	CC(=O)NCC1CCN(Cc2cc(-c3cc(Cl)cc(Cl)c3)nc(Oc3cnc(N4CCN(CCC(C)C(=O)O)CC4)nc3)c2F)CC1 (stereo not drawn) [Example 381, 4-(4-(5-((4-((4-(acetamidomethyl)piperidin-1-yl)methyl)-6-(3,5-dichlorophenyl)-3-fluoropyridin-2-yl)oxy)pyrimidin-2-yl)piperazin-1-yl)-2-methylbutanoic acid]
	63.1	8.4	Cc1nc(N2CCN(C)CC2)ccc1Oc1nc(-c2cc(Cl)cc(Cl)c2)cc(CN2CCC(CC(=O)O)CC2)c1F [Example 383, 2-(1-((6-(3,5-dichlorophenyl)-3-fluoro-2-((2-methyl-6-(4-methylpiperazin-1-yl)pyridin-3-yl)oxy)pyridin-4-yl)methyl)piperidin-4-yl)acetic acid]
	25.1	8.4	CN1CCN(c2ccc(Oc3nc(-c4cc(Cl)cc(Cl)c4)cc(CN4CCC(CC(=O)O)CC4)c3F)nn2)CC1 [Example 384, 2-(1-((6-(3,5-dichlorophenyl)-3-fluoro-2-((6-(4-methylpiperazin-1-yl)pyridazin-3-yl)oxy)pyridin-4-yl)methyl)piperidin-4-yl)acetic acid]
	12.6	8.4	COC(=O)CCN1CCN(c2ccc(Oc3cc(CN4CCC(CNC(C)=O)CC4)cc(-c4cc(Cl)cc(Cl)c4)n3)cn2)CC1 [Example 385, Methyl 3-(4-(5-((4-((4-(Acetamidomethyl)piperidin-1-yl)methyl)-6-(3,5-dichlorophenyl)pyridin-2-yl)oxy)pyridin-2-yl)piperazin-1-yl)propanoate]
	10	8.4	Cc1c(CN2CCC(CC(=O)O)CC2)cc(-c2cc(Cl)cc(Cl)c2)nc1Oc1ccc(N2CCN(C)CC2)nc1 [Example 386, 2-(1-((6-(3,5-Dichlorophenyl)-3-methyl-2-((6-(4-methylpiperazin-1-yl)pyridin-3-yl)oxy)pyridin-4-yl)methyl)piperidin-4-yl)acetic acid, 4 hydrochloride]
	25.1	8.5	O=C(O)CC1CCN(Cc2cc(Oc3cnc(N4CCN(Cc5cnn[nH]5)CC4)nc3)nc(-c3cc(Cl)cc(Cl)c3)c2)CC1 [Example 387, 2-(1-((2-((2-(4-((1H-1,2,3-Triazol-5-yl)methyl)piperazin-1-yl)pyrimidin-5-yl)oxy)-6-(3,5-dichlorophenyl)pyridin-4-yl)methyl)piperidin-4-yl)acetic acid]
	50.1	8.1	CN1CCN(c2ncc(N(C)c3cc(CN4CCC(CC(=O)O)CC4)cc(-c4cc(Cl)cc(Cl)c4)n3)cn2)CC1 [Example 388, 2-(1-((2-(3,5-Dichlorophenyl)-6-(methyl(2-(4-methylpiperazin-1-yl)pyrimidin-5-yl)amino)pyridin-4-yl)methyl)piperidin-4-yl)acetic acid, 4 hydrochloride]
	63.1	8.2	CCN(c1cnc(N2CCN(C)CC2)nc1)c1cc(CN2CCC(CC(=O)O)CC2)cc(-c2cc(Cl)cc(Cl)c2)n1 [Example 389, 2-(1-((2-(3,5-Dichlorophenyl)-6-(ethyl(2-(4-methylpiperazin-1-yl)pyrimidin-5-yl)amino)pyridin-4-yl)methyl)piperidin-4-yl)acetic acid]
	6.31	8.7	CC(=O)NCC1CCN(Cc2cc(Oc3cnc(N4CCN(CCC(N)=O)CC4)cn3)nc(-c3cc(Cl)cc(Cl)c3)c2)CC1 [Example 391, 3-(4-(5-((4-((4-(acetamidomethyl)piperidin-1-yl)methyl)-6-(3,5-dichlorophenyl)pyridin-2-yl)oxy)pyrazin-2-yl)piperazin-1-yl)propanamide]
	15.8	9	CCC(=O)NCC1CCN(Cc2cc(Oc3cnc(N4CCN(CCC(C)C(=O)O)CC4)cn3)nc(-c3cc(Cl)cc(Cl)c3)c2)CC1 (stereo not drawn) [Example 392, 4-(4-(5-((6-(3,5-dichlorophenyl)-4-((4-(propionamidomethyl)piperidin-1-yl)methyl)pyridin-2-yl)oxy)pyrazin-2-yl)piperazin-1-yl)-2-methylbutanoic acid]
	2.51	9.2	CC(=O)NCC1CCN(Cc2cc(Oc3cnc(N4CCN(C(C)CO)CC4)cn3)nc(-c3cc(Cl)cc(Cl)c3)c2)CC1 (stereo not drawn) [Example 393, N-((1-((2-(3,5-dichlorophenyl)-6-((5-(4-(1-hydroxypropan-2-yl)piperazin-1-yl)pyrazin-2-yl)oxy)pyridin-4-yl)methyl)piperidin-4-yl)methyl)acetamide]
	6.31	9	CNC(=O)NCC1CCN(Cc2cc(Oc3cnc(N4CCN(C)CC4)cn3)nc(-c3cc(Cl)cc(Cl)c3)c2)CC1 [Example 394, 1-((1-((2-(3,5-dichlorophenyl)-6-((5-(4-methylpiperazin-1-yl)pyrazin-2-yl)oxy)pyridin-4-yl)methyl)piperidin-4-yl)methyl)-3-methylurea]
	31.6	9.2	COC(=O)NCC1CCN(Cc2cc(Oc3cnc(N4CCN(C)CC4)cn3)nc(-c3cc(Cl)cc(Cl)c3)c2)CC1 [Example 395, methyl ((1-((2-(3,5-dichlorophenyl)-6-((5-(4-methylpiperazin-1-yl)pyrazin-2-yl)oxy)pyridin-4-yl)methyl)piperidin-4-yl)methyl)carbamate]
	10	10.3	CC(=O)NCC1CCN(Cc2cc(Oc3cnc(N4CCN(CCC(C)C(=O)O)CC4)cn3)nc(-c3cc(Cl)cc(Cl)c3)c2)CC1 (stereo not drawn) [Example 396, 4-(4-(5-((4-((4-(acetamidomethyl)piperidin-1-yl)methyl)-6-(3,5-dichlorophenyl)pyridin-2-yl)oxy)pyrazin-2-yl)piperazin-1-yl)-2-methylbutanoic acid]
	25.1	9	CN1CCCN(c2ncc(Oc3cc(CN4CC[C@@H]5[C@H](CC4)[C@H]5C(=O)O)cc(-c4cc(Cl)cc(Cl)c4)n3)cn2)CC1 [Example 397, (1R,7S,8r)-4-((2-(3,5-Dichlorophenyl)-6-((2-(4-methyl-1,4-diazepan-1-yl)pyrimidin-5-yl)oxy)pyridin-4-yl)methyl)-4-azabicyclo[5.1.0]octane-8-carboxylic acid, 4 hydrochloride]
	39.8	8.8	O=C(O)CC1CCN(Cc2cc(Oc3cnc(N4CCNCC(F)C4)nc3)nc(-c3cc(Cl)cc(Cl)c3)c2)CC1 (stereo not drawn) [Example 399, 2-(1-((2-(3,5-dichlorophenyl)-6-((2-(6-fluoro-1,4-diazepan-1-yl)pyrimidin-5-yl)oxy)pyridin-4-yl)methyl)piperidin-4-yl)acetic acid]

Structure (SMILES)	IC50 ([1]; read-out: furin enzyme pIC50 (converted)) [nM]	EC50 [2] [nM]	furin enzyme pIC50 [1]
O=C(O)CC1CCN(Cc2cc(-c3cc(Cl)cc(Cl)c3)nc(Oc3cnc(N4CC5CCC(C4)N5)nc3)c2F)CC1 [Example 382, 2-(1-((2-((2-(3,8-diazabicyclo[3.2.1]octan-3-yl)pyrimidin-5-yl)oxy)-6-(3,5-dichlorophenyl)-3-fluoropyridin-4-yl)methyl)piperidin-4-yl)acetic acid]		6.31	8.6
CN1C2CCC1CN(c1ncc(Oc3cc(CN4CCC(CC(=O)O)CC4)cc(-c4cc(Cl)cc(Cl)c4)n3)cn1)C2 [Example 398, 2-(1-((2-(3,5-dichlorophenyl)-6-((2-(8-methyl-3,8-diazabicyclo[3.2.1]octan-3-yl)pyrimidin-5-yl)oxy)pyridin-4-yl)methyl)piperidin-4-yl)acetic acid]		6.31	8.9
